We go through 23 molecules from patent US8951964B2, “Phenanthridine macrocyclic hepatitis C serine protease inhibitors” (priority 2010, dated 2015).

pEC50: −log10 of the molar value.

Holding throughout (format): cell-based, HCV
Assay [1] has as its system genotype 3a NS3 gene in transient replicon. In words: 3a transient replicon (luciferase reporter). To be noted: Hepatitis C virus, Huh-7, read-out: 3a transient replicon (nM). On the technique in general: Replicon systems follow genome replication, usually without infectious particles.
Assay [2] relates to genotype 1a transient replicon (1a-H77). In words: 1a transient replicon (luciferase reporter). The conditions noted are these: Hepatitis C virus, HuH-7 cells, 5% FBS.
For assay [3], the system named is genotype 1b transient replicon. In words: 1b transient replicon (luciferase reporter). To be noted: Hepatitis C virus, HuH-7 cells, 5% FBS.

Consider `CC1(S(=O)(=O)NC(=O)[C@@]23C[C@H]2/C=C\CCCCC[C@H](NC(=O)c2ccon2)C(=O)N2C[C@H](Oc4nc5cc(OC(F)(F)F)ccc5c5ccccc45)C[C@H]2C(=O)N3)CC1`, for which, in assay [1], the EC50 was 0.1 to 0.5 nM. The pEC50 in assay [2] and in assay [3] was above 10.00 each time.

For the molecule `Cn1ccc(C(=O)N[C@H]2CCCCC/C=C\[C@@H]3C[C@@]3(C(=O)NS(=O)(=O)C3(C)CC3)NC(=O)[C@@H]3C[C@@H](Oc4nc5cc(F)ccc5c5ccc(OC(F)(F)F)cc45)CN3C2=O)n1`, in assay [1], the EC50 was in the range of 0.1 to 0.5 nM. For the same molecule, the negative logarithm of the EC50 (pEC50) is above 10.00 in assay [2] and 9.30 to 10.00 in assay [3].

In the case of `Cc1ccc(C(=O)N[C@H]2CCCCC/C=C\[C@@H]3C[C@@]3(C(=O)NS(=O)(=O)C3(C)CC3)NC(=O)[C@@H]3C[C@@H](Oc4nc5ccccc5c5ccc(OC(F)(F)F)cc45)CN3C2=O)o1`, the EC50 in assay [1] was below 0.1 nM. In addition, the pEC50 in assay [2] and in assay [3] was 9.30 to 10.00 throughout.

Turning to `CC1(S(=O)(=O)NC(=O)[C@@]23C[C@H]2/C=C\CCCCC[C@H](NC(=O)c2ccon2)C(=O)N2C[C@H](Oc4nc5cc(OC(F)(F)F)ccc5c5cc(F)ccc45)C[C@H]2C(=O)N3)CC1`, in assay [1], the EC50 fell in the range of 0.1 to 0.5 nM. In addition, the pEC50 in assay [2] and in assay [3] was 9.30 to 10.00 throughout.

For the molecule `Cc1cc(C(=O)N[C@H]2CCCCC/C=C\[C@@H]3C[C@@]3(C(=O)NS(=O)(=O)C3(C)CC3)NC(=O)[C@@H]3C[C@@H](Oc4nc5cc(F)ccc5c5ccc(OC(F)(F)F)cc45)CN3C2=O)no1`, the EC50 in assay [1] is above 1 nM. Moreover, the pEC50 is above 10.00 in assay [2] and 9.30 to 10.00 in assay [3].

In the case of `CC1(S(=O)(=O)NC(=O)[C@@]23C[C@H]2/C=C\CCCCC[C@H](NC(=O)c2ccon2)C(=O)N2C[C@H](Oc4nc5cc(F)ccc5c5cc(OC(F)(F)F)ccc45)C[C@H]2C(=O)N3)CC1`, in assay [1], the EC50 is above 1 nM. Besides, the pEC50 in assay [2] is above 10.00; in assay [3], 9.30 to 10.00.

For `COc1ccc2c(c1)nc(O[C@@H]1C[C@H]3C(=O)N[C@]4(C(=O)NS(=O)(=O)C5(C)CC5)C[C@H]4/C=C\CCCCC[C@H](NC(=O)c4ccn(C)n4)C(=O)N3C1)c1ccc(F)cc12`, the EC50 in assay [1] was 0.1 to 0.5 nM. Also, the negative logarithm of the EC50 (pEC50) in assay [2] and in assay [3] was 9.30 to 10.00 each time.

On to `CC1(S(=O)(=O)NC(=O)[C@@]23C[C@H]2/C=C\CCCCC[C@H](NC(=O)[C@H](O)C(F)(F)F)C(=O)N2C[C@H](Oc4nc5cc(OC(F)(F)F)ccc5c5ccccc45)C[C@H]2C(=O)N3)CC1`, for which the EC50 in assay [1] was 0.5 to 1 nM. The pEC50 in assay [2] and in assay [3] was above 10.00 in each case.

As to `CC1(S(=O)(=O)NC(=O)[C@@]23C[C@H]2/C=C\CCCCC[C@H](NC(=O)[C@H](O)C(F)(F)F)C(=O)N2C[C@H](Oc4nc5cc(F)ccc5c5cc(F)ccc45)C[C@H]2C(=O)N3)CC1`, the EC50 in assay [1] was above 1 nM. The pEC50 in assay [2] and in assay [3] was above 10.00 throughout.

Turning to `CC1(S(=O)(=O)NC(=O)[C@@]23C[C@H]2/C=C\CCCCC[C@H](NC(=O)c2ccon2)C(=O)N2C[C@H](Oc4nc5cc(OC(F)(F)F)ccc5c5ccc(F)cc45)C[C@H]2C(=O)N3)CC1`, the EC50 in assay [1] lay within 0.5 to 1 nM. Moreover, the pEC50 in assay [2] and in assay [3] was above 10.00 in each case.

`CC1(S(=O)(=O)NC(=O)[C@@]23C[C@H]2/C=C\CCCCC[C@H](NC(=O)c2ccn(C(F)F)n2)C(=O)N2C[C@H](Oc4nc5ccccc5c5ccc(OC(F)(F)F)cc45)C[C@H]2C(=O)N3)CC1`: the EC50 in assay [1] is above 1 nM. Further, the pEC50 in assay [2] and in assay [3] was 9.30 to 10.00 each time.

As to `CC1(S(=O)(=O)NC(=O)[C@@]23C[C@H]2/C=C\CCCCC[C@H](NC(=O)[C@H](O)C(F)(F)F)C(=O)N2C[C@H](Oc4nc5ccccc5c5cc(F)ccc45)C[C@H]2C(=O)N3)CC1`, in assay [1], the EC50 is above 1 nM. Also, the pEC50 in assay [2] and in assay [3] was above 10.00 each time.

For the molecule `Cc1ccc(C(=O)N[C@H]2CCCCC/C=C\[C@@H]3C[C@@]3(C(=O)NS(=O)(=O)C3(C)CC3)NC(=O)[C@@H]3C[C@@H](Oc4nc5cc(F)ccc5c5cc(F)ccc45)CN3C2=O)s1`, the EC50 in assay [1] was above 1 nM. Besides, the pEC50 in assay [2] and in assay [3] was 9.30 to 10.00 in each case.

As for `Cn1ccc(C(=O)N[C@H]2CCCCC/C=C\[C@@H]3C[C@@]3(C(=O)NS(=O)(=O)C3(C)CC3)NC(=O)[C@@H]3C[C@@H](Oc4nc5cc(F)ccc5c5cc(OC(F)(F)F)ccc45)CN3C2=O)n1`, the EC50 in assay [1] was above 1 nM. The pEC50 in assay [2] and in assay [3] was 9.30 to 10.00 throughout.

With `Cc1ccc(C(=O)N[C@H]2CCCCC/C=C\[C@@H]3C[C@@]3(C(=O)NS(=O)(=O)C3(C)CC3)NC(=O)[C@@H]3C[C@@H](Oc4nc5cc(OC(F)(F)F)ccc5c5cc(F)ccc45)CN3C2=O)s1`, the EC50 in assay [1] lay within 0.1 to 0.5 nM. Also, the results for the pEC50 in assay [2] and in assay [3] were 9.00 to 9.30 and 9.30 to 10.00, respectively.

As for `CC1(S(=O)(=O)NC(=O)[C@@]23C[C@H]2/C=C\CCCCC[C@H](NC(=O)[C@H](O)C(F)(F)F)C(=O)N2C[C@H](Oc4nc5cc(OC(F)(F)F)ccc5c5ccc(F)cc45)C[C@H]2C(=O)N3)CC1`, the EC50 in assay [1] is above 1 nM. For the same molecule, the pEC50 in assay [2] and in assay [3] was above 10.00 each time.

For `CC1(S(=O)(=O)NC(=O)[C@@]23C[C@H]2/C=C\CCCCC[C@H](NC(=O)c2ccon2)C(=O)N2C[C@H](Oc4nc5ccccc5c5cc(F)ccc45)C[C@H]2C(=O)N3)CC1`, the EC50 in assay [1] is 0.5 to 1 nM. In addition, the pEC50 is above 10.00 in assay [2] and 9.30 to 10.00 in assay [3].

Regarding `Cc1ccc(C(=O)N[C@H]2CCCCC/C=C\[C@@H]3C[C@@]3(C(=O)NS(=O)(=O)C3(C)CC3)NC(=O)[C@@H]3C[C@@H](Oc4nc5cc(OC(F)(F)F)ccc5c5ccc(F)cc45)CN3C2=O)s1`, in assay [1], the EC50 is above 1 nM. Besides, the pEC50 in assay [2] and in assay [3] was 9.30 to 10.00 throughout.

As to `Cn1ccc(C(=O)N[C@H]2CCCCC/C=C\[C@@H]3C[C@@]3(C(=O)NS(=O)(=O)C3CC3)NC(=O)[C@@H]3C[C@@H](Oc4nc5ccccc5c5cc(OC(F)(F)F)ccc45)CN3C2=O)n1`, the EC50 in assay [1] was above 1 nM. The negative logarithm of the EC50 (pEC50) in assay [2] and in assay [3] was 9.30 to 10.00 each time.

On to `Cc1ccc(C(=O)N[C@H]2CCCCC/C=C\[C@@H]3C[C@@]3(C(=O)NS(=O)(=O)C3(C)CC3)NC(=O)[C@@H]3C[C@@H](Oc4nc5ccccc5c5cc(F)ccc45)CN3C2=O)o1`, for which the EC50 in assay [1] is 0.1 to 0.5 nM. The pEC50 in assay [2] and in assay [3] was 9.30 to 10.00 in each case.

As to `Cc1ccc(C(=O)N[C@H]2CCCCC/C=C\[C@@H]3C[C@@]3(C(=O)NS(=O)(=O)C3(C)CC3)NC(=O)[C@@H]3C[C@@H](Oc4nc5ccccc5c5cc(F)ccc45)CN3C2=O)s1`, the EC50 in assay [1] is above 1 nM. For the same molecule, the pEC50 in assay [2] and in assay [3] was 9.30 to 10.00 each time.

As for `Cc1cc(C(=O)N[C@H]2CCCCC/C=C\[C@@H]3C[C@@]3(C(=O)NS(=O)(=O)C3CC3)NC(=O)[C@@H]3C[C@@H](Oc4nc5cc(F)ccc5c5cc(OC(F)(F)F)ccc45)CN3C2=O)no1`, in assay [1], the EC50 is above 1 nM. Also, the pEC50 was above 10.00 in assay [2] and 9.30 to 10.00 in assay [3].

As to `Cn1ccc(C(=O)N[C@H]2CCCCC/C=C\[C@@H]3C[C@@]3(C(=O)NS(=O)(=O)C3(C)CC3)NC(=O)[C@@H]3C[C@@H](Oc4nc5cc(OC(F)(F)F)ccc5c5ccc(F)cc45)CN3C2=O)n1`, the EC50 in assay [1] lay in the range of 0.1 to 0.5 nM. The pEC50 in assay [2] and in assay [3] was above 10.00 throughout.

As a reminder, the pEC50 is −log10 of the EC50, conventionally taken in molar units.
